pIC50: −log10 of the molar value. Numbered stars: 1 amine (or outer) side, 2 acyl side, 3 side chain; on linkers, the order of the positions; unused ones are H or OH. Bridge positions count the residues as written; N and C are the ends. Square brackets hold non-standard residues; d marks the D form. Peptide text beside a SMILES is read from it. * marks the point of attachment. hPhe(3-Cl-4-CF3) = N[C@@H](CCc1ccc(C(F)(F)F)c(Cl)c1)C(=O)O; NMePhe(4-CF3) = CN[C@@H](Cc1ccc(C(F)(F)F)cc1)C(=O)O; Pro(trans-4-Ph) = O=C(O)[C@@H]1C[C@@H](c2ccccc2)CN1; NMeAbu(4,4,4-F3) = CN[C@@H](CC(F)(F)F)C(=O)O; NMePhe(4-Me) = CN[C@@H](Cc1ccc(C)cc1)C(=O)O; hPhe(4-Cl) = N[C@@H](CCc1ccc(Cl)cc1)C(=O)O; NMedβ3hAla = C[C@H](CC(=O)[*:2])N(C)[*:1]; NMePhe(2-F) = CN[C@@H](Cc1ccccc1F)C(=O)O; NMeGly(cPent) = CN[C@H](C(=O)O)C1CCCC1; NMeGly(cBu) = CN[C@H](C(=O)O)C1CCC1; NMeCha = CN[C@@H](CC1CCCCC1)C(=O)O; Hyp = O=C(O)[C@@H]1C[C@@H](O)CN1; NMeChg = CN[C@H](C(=O)O)C1CCCCC1; N(CH2CH2)2CF2 = FC1(F)CCN(*)CC1; NMeD = CN[C@@H](CC(=O)O)C(=O)O; NMeL = CN[C@@H](CC(C)C)C(=O)O; NMeV = CN[C@H](C(=O)O)C(C)C; NPhGly = O=C(O)CNc1ccccc1; NMeA = CN[C@@H](C)C(=O)O; Nphe = O=C(O)CNCc1ccccc1; Piperidide = C1CCN(*)CC1; Pyrrolidide = C1CCN(*)C1; Ac5c = NC1(C(=O)O)CCCC1; Aze = O=C(O)[C@@H]1CCN1; Ac4c = NC1(C(=O)O)CCC1; Sar = CNCC(=O)O
What was measured:
[1] = target: protein-protein interaction between Kras and SOS1 (biotin-tagged human Kras loaded with GDP, His-tagged human SOS1) (Homo sapiens (Human), UniProt P01116, G12D); assay: Protein-protein interaction inhibition between Kras and SOS1 (KrasG12D-SOS PPI) using AlphaScreen; assay type: biochemical; conditions: AlphaScreen; biotin-tagged human Kras loaded with GDP, His-tagged human SOS1; read-out: KRAS G12D-SOS PPI IC50;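 further: kras produced in E. coli, Ni-coupled donor beads and streptavidin acceptor beads, excitation 680 nm with emission detected at 520–620 nm via singlet oxygen transfer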
[2] = test system: Human pancreatic cancer cell line AsPC-1 (G12D mutation Kras); assay: AsPC-1 cell growth inhibition (AsPC-1 CGI); assay type: cell-based; conditions: read-out: AsPC-1 cell growth inhibition, 50% growth inhibitory concentration (IC50 value); 96 hours, CellTiter-Glo, values classified in ranges
Procedure: Test compounds were serially dilated with dimethyl sulfoxide, and 200 nL was then dispensed to a U-bottom 96-well plate using Labcyte Echo. […] The cell suspension was dispensed to a. plate containing a test compound at 100 μL per well and incubated at 37° C. in a 5% carbon dioxide gas incubator. 96 hours later, 80 μL of CellTiter-Glo (Promega) was added to each well and fluorescence was measured.

Row | SMILES | pIC50 [1] | pIC50 [2]
1 | CC[C@H](C)[C@@H]1NC(=O)[C@H](CC(C)C)N(C)C(=O)C[C@@H](C(=O)N2CCCCC2)N(C)C(=O)[C@H](C2CCCCC2)N(C)C(=O)C2(CCCC2)NC(=O)[C@@H]2C[C@@H](c3ccccc3)CN2C(=O)[C@H](CCc2ccc(C(F)(F)F)c(Cl)c2)NC(=O)CN(C)C(=O)[C@H](CC2CCCCC2)N(C)C(=O)[C@@H]2CCCN2C(=O)CN(C)C1=O [Compound 255] ([NMeL]I[Sar]P[NMeCha][Sar][hPhe(3-Cl-4-CF3)][Pro(trans-4-Ph)][Ac5c][NMeChg][NMeD]-Piperidide; lactam N-11) | 8.11 | < 6.30
2 | CC[C@H](C)[C@@H]1NC(=O)[C@H](CC(C)C)N(C)C(=O)C[C@@H](C(=O)N2CCCCC2)N(C)C(=O)[C@H](C(C)C)N(C)C(=O)C2(CCCC2)NC(=O)[C@H](CC(=O)N2CCC(F)(F)CC2)N(C)C(=O)[C@H](CCc2ccc(Cl)cc2)NC(=O)CN(C)C(=O)[C@H](CC2CCCCC2)N(C)C(=O)CN(C)C(=O)CN(C)C1=O [Compound 177] ([NMeL]I[Sar][Sar][NMeCha][Sar][hPhe(4-Cl)][NMeD](N(CH2CH2)2CF2)[Ac5c][NMeV][NMeD]-Piperidide; lactam N-11) | 7.35 | < 6.30
3 | CC[C@H](C)[C@@H]1NC(=O)[C@H](C)N(C)C(=O)C[C@@H](C)N(C)C(=O)[C@H](C2CCC2)N(C)C(=O)C2(CCCC2)NC(=O)CN(c2ccccc2)C(=O)[C@H](CCc2ccc(C(F)(F)F)c(Cl)c2)NC(=O)CN(C)C(=O)[C@H](CC2CCCCC2)N(C)C(=O)CN(C)C(=O)CN(C)C1=O [Compound 2143] (cyclo([Ac5c][NMeGly(cBu)][NMedβ3hAla][NMeA]I[Sar][Sar][NMeCha][Sar][hPhe(3-Cl-4-CF3)][NPhGly])) | 7.39 | < 6.30
4 | CC[C@H](C)[C@@H]1NC(=O)[C@H](C)N(C)C(=O)C[C@@H](C(=O)N2CCCCC2)N(C)C(=O)[C@H](C(C)C)N(C)C(=O)C2(CCCC2)NC(=O)[C@H](Cc2ccccc2F)N(C)C(=O)[C@H](CCc2ccc(C(F)(F)F)c(Cl)c2)NC(=O)CN(C)C(=O)[C@H](CC2CCCCC2)N(C)C(=O)CN(C)C(=O)CN(C)C1=O [Compound 492] ([NMeA]I[Sar][Sar][NMeCha][Sar][hPhe(3-Cl-4-CF3)][NMePhe(2-F)][Ac5c][NMeV][NMeD]-Piperidide; lactam N-11) | 7.92 | < 6.30
5 | CC[C@H](C)[C@@H]1NC(=O)[C@H](CC(C)C)N(C)C(=O)C[C@@H](C(=O)N2CCCC2)N(C)C(=O)[C@H](C2CCCC2)N(C)C(=O)C2(CCCC2)NC(=O)[C@@H]2CCCN2C(=O)[C@H](CCc2ccc(C(F)(F)F)c(Cl)c2)NC(=O)CN(C)C(=O)[C@H](Cc2ccc(C(F)(F)F)cc2)N(C)C(=O)[C@@H]2CCN2C(=O)[C@H](C)N(C)C1=O [Compound 589] ([NMeL]I[NMeA][Aze][NMePhe(4-CF3)][Sar][hPhe(3-Cl-4-CF3)]P[Ac5c][NMeGly(cPent)][NMeD]-Pyrrolidide; lactam N-11) | 9.31 | ≥ 7.70
6 | CCO[C@@H]1C[C@H]2C(=O)NC3(CCCC3)C(=O)N(C)[C@@H](C3CCCCC3)C(=O)N(C)[C@H](C(=O)N3CCCC3)CC(=O)N(C)[C@@H](CC(F)(F)F)C(=O)N[C@@H]([C@@H](C)CC)C(=O)N(C)CC(=O)N(C)CC(=O)N(C)[C@@H](Cc3ccc(C)cc3)C(=O)N(C)CC(=O)N[C@@H](CCc3ccc(C(F)(F)F)c(Cl)c3)C(=O)N2C1 [Compound 1339] ([NMeAbu(4,4,4-F3)]I[Sar][Sar][NMePhe(4-Me)][Sar][hPhe(3-Cl-4-CF3)][Hyp](Et)[Ac5c][NMeChg][NMeD]-Pyrrolidide; lactam N-11) | 9.24 | ≥ 7.70
7 | CC[C@H](C)[C@@H]1NC(=O)[C@H](C)N(C)C(=O)C[C@@H](C(=O)N2CCCCC2)N(C)C(=O)[C@H](C(C)C)N(C)C(=O)C2(CCCC2)NC(=O)CN(Cc2ccccc2)C(=O)[C@H](CCc2ccc(C(F)(F)F)c(Cl)c2)NC(=O)CN(C)C(=O)[C@H](CC2CCCCC2)N(C)C(=O)CN(C)C(=O)CN(C)C1=O [Compound 1676] ([NMeA]I[Sar][Sar][NMeCha][Sar][hPhe(3-Cl-4-CF3)][Nphe][Ac5c][NMeV][NMeD]-Piperidide; lactam N-11) | 8.80 | < 6.30
8 | CCO[C@@H]1C[C@H]2C(=O)NC3(CCC3)C(=O)N(C)[C@@H](C3CCCCC3)C(=O)N(C)[C@H](C(=O)N3CCCC3)CC(=O)N(C)[C@@H](CC(C)C)C(=O)N[C@@H]([C@@H](C)CC)C(=O)N(C)CC(=O)N(C)CC(=O)N(C)[C@@H](CC3CCCCC3)C(=O)N(C)CC(=O)N[C@@H](CCc3ccc(C(F)(F)F)c(Cl)c3)C(=O)N2C1 [Compound 1241] ([NMeL]I[Sar][Sar][NMeCha][Sar][hPhe(3-Cl-4-CF3)][Hyp](Et)[Ac4c][NMeChg][NMeD]-Pyrrolidide; lactam N-11) | 9.30 | ≥ 7.70
